Data taken from patent US4636498A, “Formulation of antiinflammatory drugs” (Pfizer Inc., priority 1985, dated 1987).
“And” between values parts separate entries of the source, which are not always exact repeats. Equal values may be shown once. Where a name gives a salt, the structure may show the parent alone. Read-outs that look alike come from different tables or passages of the source.

Legend:
[1] = particularly with indomethacin; cited from earlier work
[2] = test system: gastric lesions induced by the ethanolamine salt of piroxicam; assay: Gastric lesions in rats induced by the ethanolamine salt of piroxicam; assay type: in vivo, rat; settings: for ED50: Rattus norvegicus, po, 6.5 h, linear regression analyses
Procedure: (§1) Adult male "specific pathogen free" rats weighing 140-160 grams of the CD strain (Sprague-Dawley) were obtained from Charles River Breeding Laboratories (Kingston, N.Y.). The animals were acclimated for approximately one week and tested when they reached a body weight of 200-225 grams. The rats were fasted for 16 hours and randomized into groups consisting of 8 to 10 animals which were normalized with regard to their average body weight. Gastric ulcers were induced in the animals by orally dosing the animals with a single 100 mg/kg dose of piroxicam solution containing the drug dissolved in 2 ml 0.1% methylcellulose in water (pH=6.8). Those animals receiving 2-guanidino-4-(2-methyl-4-imidazolyl)thiazole (0.3, 1.0, 3.3 or 10.0 mg/kg as the dihydrochloride salt) separately received that drug, dissolved in an additional 2 ml of the same medium, at about the same time. Six and one-half hours later, the animals were sacrificed by cervical dislocation and autopsied. The stomachs were surgically removed, dissected along the greater curvature and rinsed with cold water. The stomachs were individually scored for both linear and punctate lesions. The total number of lesions was used for scoring purposes. The data obtained from each group of rats was analyzed after calculation of the mean number +/- the standard error of total gastric lesions. The values obtained were also compared to the controls which received only piroxicam by the two-tailed Student's t-test for nonpaired data.
According to the preceding Example, gastric ulcers were induced by a single dose of 100 mg of the ethanolamine salt of piroxicam. Test groups received 0.3, 1.0 and 3.3 mg/kg doses of 2-guanidino-4-(2-methyl-4-imidazolyl)thiazole.
This test was repeated, using 120 mg of the ethanolamine salt of piroxicam to induce ulcers.
According to Examples 2 and 3, gastric ulcers were induced by a single dose of 120 mg of the ethanolamine salt of piroxicam. Test groups received 0.03, 0.10 and 0.33 mg/kg doses of 2-(N-pentyl-N'-guanidino)-4-(2-methyl-4-imidazolyl)thiazole dihydrochloride.

ethanol-induced ulcers = assay: Inhibition of ethanol-induced ulceration in rats; assay type: in vivo, rat (male); settings: as dihydrobromide salt
Procedure: The antiulcer activity of the products of Examples 9 and 10 was also determined by an ethanol-induced rat ulcer assay. In this test, overnight fasted male rats are given drug (at 30 or 3 mg/kg) or water orally fifteen minutes prior to an orally administered dose of absolute ethanol (1.0 ml). One hour after the ethanol challenge the animals (8/group) are killed and the stomachs examined for the presence of lesions. After sacrifice the abdomen is opened and a locking hemostat placed at the pylorus. Six ml of a 4% solution of formaldehyde was injected into the stomach with a gastric feeding tube and a second locking hemostat was used to seal the esophagus. The stomach was removed, opened along the greater curvature and examined for ulceration.
The scoring system used to quantitate the ethanol-induced lesions is given below.
For each group of animals an ulcer index is calculated as follows: [formula]
The percentage inhibition of ulcers is calculated as follows: [formula]

[3] = test system: indomethacin-induced gastric lesions; assay: Prevention of indomethacin-induced gastric lesions in rats; assay type: in vivo, rat (male, CD strain); settings: for ED50: Rattus norvegicus, po, mg/kg of free base, read-out: ID50 (the source's name)
Source text: Rats for testing were ordered to arrive the week before being tested, and acclimated that first week. Male, CD strain rats were used. By ordering at 100-125 grams, body weights during the second week generally ranged from 150-200 grams. Rats were fasted the day before the test, with food removed from the gang cages no later than 4 p.m. Following an overnight fast a loss of 15-20 grams body weight was anticipated, so volumes of test solutions required for the following day could be estimated. Water was allowed ad lib overnight and during the test itself. On the test day both oral and intraperitoneal dosing was done with volumes of 4.0 ml/kg. Therefore, by knowing approximate body weights (and therefore required volumes) as well as drug doses (mg/kg) to be used, the amount of antiulcer drug and indomethacin needed was determined and preweighed into test tubes the day before the test. The antiulcer drugs to be tested, in the form of their dihydrochloride salts, were put into solution or suspended. Distilled water was normally the vehicle used. Indomethacin was suspended in saline and homogenized with a small drop of Tween 80 (polysorbate 80) to prevent aggregation of particles. The indomethacin will not stay suspended in the saline, and it is critical that the test tube be well vortexed and the drug resuspended before each dose is drawn into a syringe. A random sample of the rats to be tested (usually about 20% of the total test group) was used to determine average body weight of the group. […] The rats were removed from the gang cage, given the test drug or vehicle p.o., and placed in individual cages. The timing of antiulcer drug dosing relative to the indomethacin challenge varied depending on the specific protocol used. As a typical test consisted of 7 groups of 7 rats each, a predose time of 45 minutes was conveniently used. This allowed about one minute to orally dose each rat. Indomethacin was administered i.p. after the predose time had elapsed. In the typical test mentioned above, this required going back to the first rat and beginning indomethacin injections as soon as the drug dosing was completed. To keep the predose time consistent, rats were also given the indomethacin at a rate of about one per minute. If the test compound was not expected to have a long duration of action, it was desirable to administer a second dose of antiulcer drug during the test. The typical time between indomethacin administration and sacrifice is 6.5 hours. […] Of course, control animals were also dosed with vehicle at this time. The rats were sacrificed 6.5 hours after administration of the indomethacin. The stomachs were excised, opened along the greater curvature, and rinsed under running water. Lightly rubbing the mucosa while holding it in the stream of water helped to remove some mucus and large clots of blood, but vigorous rubbing was avoided as it may dislodge blood from the indomethacin-induced hemorrhagic erosions, making the erosions extremely difficult to see. Next the stomachs were placed flat, mucosa side up, on a tray covered with saline-soaked towels. The lesions were then counted, or the stomachs held overnight for examination the following day. If they were stored overnight, the stomachs were first moistened with saline and placed in a polyethylene bag and in a refrigerator. The indomethacin-induced gastric lesions usually appeared as dark brown or black colored erosions in the corpus (the acid-secreting portion) of the stomach. The dark coloration is caused by the action of the gastric acid on blood within the erosion. Lesions were either punctate or linear in nature. Quantitative determination of lesion size has shown that the average lesion length is about 1 mm. Regardless of size, each individual lesion was counted as one. However, if one group of animals obviously had lesions of a different nature than the controls, this fact was recorded. […]

[4] = test system: adjuvant-induced arthritis; assay: Adjuvant-induced arthritis in the rat (inhibition of paw edema); assay type: in vivo, rat (male Wistar-Lewis); settings: for ED50: Rattus norvegicus, po, piroxicam alone, linear regression analysis; for % Inhibition of Lesions, Primary: day 4, injected paw; for % Inhibition of Lesions, Secondary: day 16, non-injected paw
Procedure: Adjuvant arthritis was induced in adult male Wistar-Lewis rats weighing 250-270 grams each (Charles River Breeding Laboratories, Kingston, N.Y.) by a single subplantar injection of 1 mg of Mycobacterium butyricum (Difco Laboratories, Lot #0640-33) suspended in 0.1 ml mineral oil as described by Walz et al. (Proc. Soc. Exptl. Biol. Med., 136: 907-910, 1971). Seven rats were used in each group. Orally administered drugs were dissolved in water and dilute sodium hydroxide was added as necessary to ensure solution; control groups received only water. After neutralization of the solutions to pH 7.0, a volume of 10 ml/kg body weight was given by intubation with a blunt end, 18-gauge needle. Doses of each drug were given daily starting 1 day before the injection of adjuvant and continuing until 16 days after the induction of the arthritic lesion.
The initial hindpaw volumes (Vi) were measured on the day of adjuvant injection and the resultant swelling was determined on the injected paw (Vf - Vi) on the 4th day following the adjuvant injection. This was considered to be the primary response or lesion. The swelling (Vf - Vi) measured 16 days after adjuvant injection on the contralateral, non-injected hindpaw constituted the secondary response or lesion. The rats were weighed at the start of the experiments as well as 4 and 16 days after the induction of the disease. Percent inhibition of edema was calculated according to the following formula: [formula] […] This shift represents a 5 fold increase in the potency of piroxicam.

[5] = test system: piroxicam-induced gastric lesions; assay: Piroxicam-induced gastric lesions in rats; assay type: in vivo, rat (male, CD strain, Sprague-Dawley)
Procedure: as §1, with “The values obtained were also compared to the controls which received only piroxicam by the two-tailed Student's t-test for nonpaired data.” left out

[6] = Compound A oral dose 10.0 mg/kg

Compound: N[C@@](CF)(Cc1c[nH]cn1)C(=O)O [alphafluoromethylhistidine]
- Antiinflammatory activity (in words) [1]: synergistic antiinflammatory activity

Compound: CCCCCNC(N)=Nc1nc(-c2c[nH]c(C)n2)cs1 [Example 10, 4-(2-Methyl-4-imidazolyl)-2-(N-pentyl-N'-guanidino)thiazole Dihydrochloride]
- Reduction in gastric lesions induced by the ethanolamine salt of piroxicam (in words) ([2]; Example 13, 0.03-0.33 mg/kg): significant reduction in gastric lesions
- ED50 ([2]; Example 13, piroxicam ethanolamine salt 120 mg): 0.1 mg/kg
- Inhibition of ethanol-induced ulceration (ethanol-induced ulcers; oral dose 3 mg/kg): at least 40%
- Inhibition of ethanol-induced ulceration (ethanol-induced ulcers; oral dose 30 mg/kg): at least 77%

Compound: N=C(N)Nc1nc(-c2c[nH]cn2)cs1 [Compound D, 2-guanidino-4-(4-imidazolyl)thiazole]
- ED50 ([3]; single drug dose): 7.5 mg/kg
- ED50 ([3]; two drug doses): 2 mg/kg

Compound: CCCCCCNc1nc(-c2csc(NC(=N)N)n2)c[nH]1 [Compound B, 2-Guanidino-4-(2-hexylamino-4-imidazolyl)thiazole]
- ED50 ([3]; two drug doses): 10.5 mg/kg

Compound: CN1C(C(=O)Nc2ccccn2)=C(O)c2ccccc2S1(=O)=O [Piroxicam]
- ED50 ([4]; 96 h, read-out: ED50 against primary lesions): 2.6 mg/kg
- ED50 ([4]; 384 h, read-out: ED50 against secondary lesions): 0.45 mg/kg
- % Inhibition of Lesions, Primary ([4]; piroxicam oral dose 0.10 mg/kg): 29 (4) %
- % Inhibition of Lesions, Secondary ([4]; piroxicam oral dose 0.10 mg/kg, 0.1 mg/kg): 26 (2) % and 26%
- % Inhibition of Lesions, Primary ([4]; piroxicam oral dose 0.33 mg/kg): 33 (8) %
- % Inhibition of Lesions, Secondary ([4]; piroxicam oral dose 0.33 mg/kg, 0.33 mg/kg): 43 (4) % and 43%
- % Inhibition of Lesions, Primary ([4]; piroxicam oral dose 1.00 mg/kg): 45 (7) %
- % Inhibition of Lesions, Secondary ([4]; piroxicam oral dose 1.00 mg/kg, 1 mg/kg): 64 (3) % and 64%

Compound: Cc1nc(-c2csc(N=C(N)NCc3ccccc3)n2)c[nH]1 [Compound C, 2-(N-Benzyl-N'-guanidino)-4-(2-methyl-4-imidazolyl)thiazole Dihydrochloride]
- ED50 ([3]; two drug doses): 4.4 mg/kg
- Inhibition of ethanol-induced ulceration (ethanol-induced ulcers; oral dose 3 mg/kg): at least 40%
- Inhibition of ethanol-induced ulceration (ethanol-induced ulcers; oral dose 30 mg/kg): at least 77%

Compound: Cc1nc(-c2csc(NC(=N)N)n2)c[nH]1.Cl.Cl [Compound A, 2-Guanidino-4-(2-methyl-4-imidazolyl)thiazole Dihydrochloride]
- ED50 ([3]; single drug dose, obtained by extrapolation): 1.4 mg/kg
- ED50 ([3]; two drug doses, obtained by extrapolation): 1.5 mg/kg
- Reduction in lesion number ([3]; lowest dose tested, 2.2 mg/kg): 63%
- Reduction of piroxicam-induced gastric lesions (in words) ([5]; 0.3-10 mg/kg p.o.): significantly reduced piroxicam-induced gastric lesions
- ED50 ([5]; Rattus norvegicus, po, 6.5 h, linear regression analyses, piroxicam 100 mg/kg): 0.32 mg/kg
- Reduction in gastric lesions induced by the ethanolamine salt of piroxicam (in words) ([2]; 0.3-3.3 mg/kg, piroxicam ethanolamine salt 100 mg): significant reduction in gastric lesions
- ED50 ([2]; piroxicam ethanolamine salt 100 mg): 0.88 mg/kg
- ED50 ([2]; piroxicam ethanolamine salt 120 mg): 0.3 mg/kg
- % Inhibition of Lesions, Primary ([4]; Compound A oral dose 1.0 mg/kg): 0 (6) %
- % Inhibition of Lesions, Secondary ([4]; Compound A oral dose 1.0 mg/kg): 3 (3) %
- % Inhibition of Lesions, Primary ([4]; Compound A oral dose 3.3 mg/kg): 0 (3) %
- % Inhibition of Lesions, Secondary ([4]; Compound A oral dose 3.3 mg/kg): 28 (4) %
- % Inhibition of Lesions, Primary [4, 6]: 2 (2) %
- % Inhibition of Lesions, Secondary [4, 6]: 27 (3) %
- Activity against secondary lesions (in words) ([4]; compound alone): significant activity against secondary lesions
- Activity for primary lesions (in words) ([4]; compound alone): no significant activity
- ED50 against secondary lesions (in words) ([4]; compound alone): no reliable ED50 could be extrapolated
